From US7517998B2, “Non nucleoside reverse transcriptase inhibitors” (priority 2004, dated 2009)
pIC50: −log10 of the molar value.

These compounds were tested against T1, K103NNY181C mutant reverse transcriptase (Human immunodeficiency virus type 1 group M subtype B, UniProt P04585, K690N/Y768C) (assay: Reverse transcriptase enzymatic assay (PicoGreen), K103N/Y181C mutant RT). Details: IC50 mut (nM), mutant (K103N/Y181C) reverse transcriptase, enzymatic assay of Example 24.
T1 construct: mutations that occur in the reverse transcriptase segment of the pol gene
Format: biochemical, HIV-1
Description: The enzymatic assay employed is described as follows: The reverse transcriptase (RT) enzyme assay has been adapted to a 96-well microtiter plate format and uses PicoGreen™ as a fluorescent intercalator. More explicitly, the HIV-1 RT enzyme was thawed and appropriately diluted into Tris/HCl 50 mM pH 7.8 containing NaCl 60 mM, MgCl2.6H2O 2 mM, DTT 6 mM, GSH 2 mM and 0.02% w/v Chaps to give ≈10 nM enzyme. To 10 μL of this enzyme solution was added 10 μL of inhibitor solution (40 μM to 2.032 nM inhibitor in the same assay buffer as above containing 4% v/v DMSO). The plate was pre-incubated for 15 minutes at room temperature before proceeding to the next step. In this pre-incubation step, the highest and lowest inhibitor concentrations were 20 μM and 1.016 nM respectively and the concentration of DMSO was 2% v/v. Then the enzymatic reaction was initiated by addition of 20 μL of substrate solution. The final reaction mixture contained Tris/HCl 50 mM pH 7.8, NaCl 60 mM, MgCl2.6H2O 2 mM, DTT 6 mM, GSH 2 mM, CHAPS 0.02% w/v, DMSO 1% v/v, poly rC 45 nM, dG15 4.5 nM, dGTP 3.6 μM, and 2.5 nM enzyme. In this incubation step, the highest and lowest inhibitor concentrations were 10 μM and 0.508 nM respectively. After addition of the substrate cocktail, the plate was covered with a plastic seal and incubated for 50 minutes at 37° C. in a dry incubator. The reaction was then quenched by addition of 5 μL of EDTA 0.5 M. The plate was shaken for 30 seconds at medium speed and incubated for 5 minutes at room temperature. Then 160 μL of PicoGreen™ 1:400 dilution from commercial stock (diluted in Tris 20 mM pH 7.5 with EDTA 1 mM) was added and the plate was shaken for 30 seconds and incubated for 10 minutes at room temperature. The plate was then analyzed using a POLARstar Galaxy fluorometer (BMG Labtechnologies) with λex and λem of 485 nm and 520 nm respectively. Each well was read for 1.25 second. Each row contained at its extremities a blank and a control well.

In order of falling IC50:
1. CC(C)(C)c1ccc(-n2nnnc2SCC(=O)Nc2ccc(NC(=O)NCc3ccccc3)cc2Cl)c(Cl)c1 [Compound 7008]  428 nM
2. CC(C)(C)c1ccc(-n2nnnc2SCC(=O)Nc2ccc(NC(=O)c3ccccc3O)cc2Cl)c(Cl)c1 [Compound 7014]  415 nM
3. CC(C)(C)c1ccc(-n2nnnc2SCC(=O)Nc2ccc(NS(=O)(=O)Cc3ccccc3)cc2Cl)c(Cl)c1 [Compound 7004]  272 nM
4. CC(C)(C)c1ccc(-n2nnnc2SCC(=O)Nc2ccc(NC(=O)Cc3cccc4occc34)cc2Cl)c(Cl)c1 [Compound 7034]  201 nM
5. COc1cccc(CC(=O)Nc2ccc(NC(=O)CSc3nnnn3-c3ccc(C(C)(C)C)cc3Cl)c(Cl)c2)c1 [Compound 7016]  145 nM
6. CC(C)(C)c1ccc(-n2nnnc2SCC(=O)Nc2ccc(NC(=O)c3ccccc3)cc2Cl)c(Cl)c1 [Compound 7005]  106 nM
7. CC(C)(C)c1ccc(-n2nnnc2SCC(=O)Nc2ccc(NC(=O)Cc3cccc[n+]3[O-])cc2Cl)c(Cl)c1 [Compound 7047]  43.5 nM
8. CC(C)(C)c1ccc(-n2nnnc2SCC(=O)Nc2ccc(NC(=O)Cc3ccncc3)cc2Cl)c(Cl)c1 [Compound 7030]  38 nM

Same assay, conditions: IC50 mut, K103N/Y181C mutant reverse transcriptase, enzymatic assay of Example 24

In order of rising pIC50:
1. Cc1ccc(-n2nnnc2SCC(=O)Nc2ccc(C#CC(C)(C)O)cc2Cl)c(Cl)c1C(F)(F)F [Compound 4059]  6.18
2. CC(C)(C)c1ccc(-n2nnnc2SCC(=O)Nc2ccc(C#CCCCCO)cc2Cl)c(Cl)c1 [Compound 4003]  6.19
3. CC(C)(C#Cc1ccc(NC(=O)CSc2nnnn2-c2cc(C(F)(F)F)cc(C3CC3)c2Cl)c(Cl)c1F)NC(=O)CN1CCNCC1 [Compound 4236]  6.60
4. O=C(CSc1nnnn1-c1ccc(C2CC2)cc1Cl)Nc1ccc(C#CC(O)(C(F)(F)F)C(F)(F)F)cc1Cl [Compound 4249]  6.69
5. CC(C)(C#Cc1ccc(NC(=O)CSc2nnnn2-c2cc(C(F)(F)F)ccc2Cl)c(Cl)c1F)C(=O)NCCN1CCCC1 [Compound 4160]  6.94
6. CC(C)(C#Cc1ccc(NC(=O)CSc2nnnn2-c2cc(C(C)(C)C)ccc2Cl)c(Cl)c1)NC(=O)CN1CCNCC1 [Compound 4202]  6.97
7. CC(C)(C#Cc1ccc(NC(=O)CSc2nnnn2-c2cc(C(C)(C)C)cc(Br)c2Cl)c(Cl)c1)C(=O)O [Compound 4219]  7.01
8. CC(C)(O)C#Cc1ccc(NC(=O)CSc2nnnn2-c2cc(Cl)c(C3CC3)cc2Cl)c(Cl)c1 [Compound 4070]  7.08
9. Cc1cc(C#CC(C)(C)NC(=O)c2cc[n+]([O-])cc2)ccc1NC(=O)CSc1nnnn1-c1ccc(C2CC2)cc1Cl [Compound 4180]  7.15
10. CN(C)CCNC(=O)COC(C)(C)C#Cc1ccc(NC(=O)CSc2nnnn2-c2ccc(C(C)(C)C)cc2Cl)c(Cl)c1 [Compound 4047]  7.18
11. CC(C)(C#Cc1ccc(NC(=O)CSc2nnnn2-c2ccc(C(C)(C)C)cc2Cl)c(Cl)c1)OCC(=O)Nc1cnccn1 [Compound 4040]  7.24
12. CCS(=O)(=O)NC(=O)C(C)(C)C#Cc1ccc(NC(=O)CSc2nnnn2-c2ccc(C3CC3)cc2Cl)c(Cl)c1 [Compound 4197]  7.24
13. CC(C)(C#Cc1ccc(NC(=O)CSc2nnnn2-c2ccc(C(C)(C)C)cc2Cl)c(Cl)c1)OCC(=O)Nc1cccc(C(=O)O)c1 [Compound 4025]  7.36
14. CC(C)(C#Cc1ccc(NC(=O)CSc2nnnn2-c2ccc(C3CC3)cc2Cl)c(Cl)c1)NCc1ccccc1O [Compound 4130]  7.37
15. CC(=O)NC(C)(C)C#Cc1ccc(NC(=O)CSc2nnnn2-c2cc(C(F)(F)F)ccc2Cl)c(Cl)c1 [Compound 4141]  7.40
16. CC(C)(C#Cc1ccc(NC(=O)CSc2nnnn2-c2ccc(C(C)(C)C)cc2Cl)c(Cl)c1)OCC(=O)Nc1ccc(O)cc1 [Compound 4024]  7.46
17. CC(C)(C#Cc1ccc(NC(=O)CSc2nnnn2-c2cc(C3CC3)ccc2Cl)c(Cl)c1)C(=O)O [Compound 4174]  7.47
18. CC(C)(C#Cc1ccc(NC(=O)CSc2nnnn2-c2ccc(C3CC3)cc2Cl)c(Cl)c1)NC(=O)CN1CCC(O)CC1 [Compound 4125]  7.59
19. CC(C)(C#Cc1ccc(NC(=O)CSc2nnnn2-c2ccc(C3CC3)cc2Cl)c(Cl)c1)NS(C)(=O)=O [Compound 4076]  7.76
20. CC(C)(C#Cc1ccc(NC(=O)CSc2nnnn2-c2ccc(C(C)(C)C)cc2Cl)c(Cl)c1)OCC(=O)NCCC(=O)O [Compound 4055]  7.82
21. CN1CCC[C@H]1C(=O)NC(C)(C)C#Cc1ccc(NC(=O)CSc2nnnn2-c2ccc(C3CC3)cc2Cl)c(Cl)c1 [Compound 4110]  7.94
22. C[C@H](CC(=O)O)C(=O)NC(C)(C)C#Cc1ccc(NC(=O)CSc2nnnn2-c2ccc(C3CC3)cc2Cl)c(Cl)c1 [Compound 4239]  8.09

Same assay, conditions: IC50 mut, mutant reverse transcriptase, enzymatic assay of Example 24

In order of falling pIC50:
1. CC(C)(C)c1ccc(-n2nnnc2SCC(=O)Nc2ccc(-c3ccc(/C=C/C(=O)O)cc3)cc2Cl)c(Cl)c1 [Compound 2032]  8.18
2. CC(C)(C)c1ccc(-n2nnnc2SCC(=O)Nc2ccc(-c3ccc(CCC(=O)O)cc3)cc2Cl)c(Cl)c1 [Compound 2028]  8.03
3. O=C(CSc1nnnn1-c1ccc(C2CC2)cc1Cl)Nc1ccc(-c2ccc(OCCN3CCS(=O)(=O)CC3)cc2)c(F)c1Cl [Compound 2059]  7.89
4. CC(C)c1ccc(-n2nnnc2SCC(=O)Nc2ccc(-c3ccc(OCCN4CCCC4)cc3)cc2Cl)c(Br)c1 [Compound 2053]  7.62
5. CCN(CC)CCOc1ccc(-c2ccc(NC(=O)CSc3nnnn3-c3ccc(C(C)(C)C)cc3Cl)c(Cl)c2)cc1 [Compound 2024]  7.59
6. Cc1nnc(SCC(=O)Nc2ccc(-c3ccc(OCC(=O)O)cc3)cc2Cl)n1-c1ccc(C(C)(C)C)cc1Cl [Compound 1001]  7.59
7. CC(C)(C)c1ccc(-n2nnnc2SCC(=O)Nc2ccc(-c3ccc(C(=O)O)s3)cc2Cl)c(Cl)c1 [Compound 3030]  7.55
8. CC(C)(C)c1ccc(-n2nnnc2SCC(=O)Nc2ccc(C(=O)NCCC(=O)O)cc2Cl)c(Cl)c1 [Compound 6024]  7.39
9. CC(C)(C)c1ccc(-n2nnnc2SCC(=O)Nc2ccc(C(=O)Nc3ccc(N4CCOCC4)cc3)cc2Cl)c(Cl)c1 [Compound 6006]  7.34
10. CN1CCN(C(=O)COc2ccc(NC(=O)CSc3nnnn3-c3ccc(C(C)(C)C)cc3Cl)c(Cl)c2)CC1 [Compound 5003]  7.32
11. Cc1cc(F)c(-n2nnnc2SCC(=O)Nc2ccc(-c3ccc(C(C)(C)C(=O)O)cc3)cc2Cl)c(Cl)c1 [Compound 2026]  7.32
12. Cc1ccc(-n2nnnc2SCC(=O)Nc2ccc(-c3ccc(C(=O)O)cc3)cc2Cl)c(Cl)c1 [Compound 2002]  7.28
13. O=C(CSc1nnnn1-c1ccc(C2CC2)cc1Cl)Nc1ccc(C(=O)NCc2cccc[n+]2[O-])cc1Cl [Compound 6038]  7.19
14. C/C(=C\c1ccc(NC(=O)CSc2nnnn2-c2ccc(C3CC3)cc2Cl)c(Cl)c1)C(=O)O [Compound 3041]  7.03
15. CC(C)(C)c1ccc(-n2nnnc2SCC(=O)Nc2ccc(OCCN3CCOCC3)cc2Cl)c(Cl)c1 [Compound 3034]  6.95
16. COC(=O)Cc1cccc(-c2ccc(NC(=O)CSc3nnnn3-c3ccc(C)cc3Cl)c(Cl)c2)c1 [Compound 3002]  6.92
17. CC(C)(C)c1ccc(-n2nnnc2SCC(=O)Nc2ccc(OCC(=O)Nc3ccccc3O)cc2Cl)c(Cl)c1 [Compound 5009]  6.88
18. CC(C)(C)c1ccc(-n2nnnc2SCC(=O)Nc2ccc(-c3ccc(OCC(=O)O)cc3Cl)cc2Cl)c(Cl)c1 [Compound 3009]  6.81
19. CC(C)NS(=O)(=O)c1ccc(NC(=O)CSc2nnnn2-c2ccc(C(C)(C)C)cc2Cl)c(Cl)c1 [Compound 3023]  6.55
20. Cc1cc(OCC(=O)O)ccc1-c1ccc(NC(=O)CSc2nnnn2-c2ccc(C(C)(C)C)cc2Cl)c(Cl)c1 [Compound 3011]  6.47
21. Cc1ccc(-n2nnnc2SCC(=O)Nc2ccc(-c3cocn3)cc2Cl)c(Cl)c1 [Compound 3016]  6.44
22. CC(C)(C)c1ccc(-n2nnnc2SCC(=O)Nc2ccc(OCC(=O)NN3CCOCC3)cc2Cl)c(Cl)c1 [Compound 5006]  6.43
23. Cc1ccc(-n2nccc2SCC(=O)Nc2ccc(-c3ccc(CC(=O)O)cc3)cc2Cl)c(Cl)c1 [Compound 1004]  6.38
24. O=C(COc1ccc(NC(=O)CSc2nnnn2-c2ccc(C3CC3)cc2Cl)c(Cl)c1)NCCc1ccc[n+]([O-])c1 [Compound 5039]  6.32
25. O=C(COc1ccc(NC(=O)CSc2nnnn2-c2ccc(C3CC3)cc2Cl)c(Cl)c1)NCCc1cc[n+]([O-])cc1 [Compound 5040]  6.25
26. CC(C)(C)c1ccc(-n2nnnc2SCC(=O)Nc2ccc(C(=O)N3CCOCC3)cc2Cl)c(Cl)c1 [Compound 6005]  6.25
